From ChEMBL document CHEMBL1201862, “PubChem BioAssay data set” (2004)
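Growth conditions: 96-well plates. Treatment: test compound, 48 hours, 5 concentrations. Analysis: linear interpolation between bracketing concentrations; unreached endpoints set to highest concentration. Here, GI50 denotes the concentration required for 50% inhibition of growth.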 Activity calls are given as the source filed them. Rule as the data show it: active = GI50 up to about 1.1 µM and inactive = higher.

Tests used:
Assay in all cases: growth of human tumour cells (NCI), 48 h
NCI-H226 = system: NCI-H226
T47D = system: T47D
OVCAR-5 = system: OVCAR-5
LOX IMVI = system: LOX IMVI
U-251 = system: U-251
CCRF-CEM = system: CCRF-CEM
SF-268 = system: SF-268
CAKI-1 = system: CAKI-1
HCT-116 = system: HCT-116
HCT-15 = system: HCT-15
MDA-MB-231 = system: MDA-MB-231
PC-3 = system: PC-3
SR = system: SR
Hs-578T = system: Hs-578T
IGROV-1 = system: IGROV-1
NCI-H460 = system: NCI-H460
SW-620 = system: SW-620
A549 = system: A549
NCI-H522 = system: NCI-H522
RPMI-8226 = system: RPMI-8226

| SMILES | GI50 (NCI-H226) | GI50 (T47D) | GI50 (OVCAR-5) | GI50 (LOX IMVI) | GI50 (U-251) | GI50 (CCRF-CEM) | GI50 (SF-268) | GI50 (CAKI-1) | GI50 (HCT-116) | GI50 (HCT-15) | GI50 (MDA-MB-231) | GI50 (PC-3) | GI50 (SR) | GI50 (Hs-578T) | GI50 (IGROV-1) | GI50 (NCI-H460) | GI50 (SW-620) | GI50 (A549) | GI50 (NCI-H522) | GI50 (RPMI-8226) |
| --- | --- | --- | --- | --- | --- | --- | --- | --- | --- | --- | --- | --- | --- | --- | --- | --- | --- | --- | --- | --- |
| CC1OC(OC2C(O[C@H]3CC[C@@]4(C)C(=CC[C@H]5[C@@H]6C[C@@H]7O[C@]8(CC[C@@H](C)CO8)[C@@H](C)[C@@H]7[C@@]6(C)CC[C@@H]54)C3)OC(CO)C(O)C2O)C(O)C(O)C1O (stereo not given in full) | 2.49 µM (inactive) | 3.76 µM (inactive) | 2.93 µM (inactive) | 0.805 µM (active) | 0.544 µM (active) | 0.507 µM (active) | 2.44 µM (inactive) | 1.7 µM (inactive) | 1.54 µM (inactive) | 1.96 µM | 1.14 µM (inactive) | 0.581 µM (active) | 2.77 µM (inactive) | 1.86 µM (inactive) | 2.8 µM (inactive) | 0.327 µM (active) | 0.681 µM (active) | 0.647 µM (active) | 1.28 µM (inactive) | 0.698 µM (active) |
| CNc1ncnc2c1cnn2CCCCO | > 100 µM (inactive) | > 100 µM (inactive) | > 100 µM (inactive) | > 100 µM (inactive) | > 100 µM (inactive) | > 100 µM (inactive) | > 100 µM (inactive) | > 100 µM (inactive) | > 100 µM (inactive) | > 100 µM | > 100 µM (inactive) | > 100 µM (inactive) | > 100 µM (inactive) | > 100 µM (inactive) | > 100 µM (inactive) | > 100 µM (inactive) | > 100 µM (inactive) | > 100 µM (inactive) | > 100 µM (inactive) | > 100 µM (inactive) |
| CN(C)CCNC(=O)c1cccc2ccc(-c3ccc(O)cc3)nc12 | 1.93 µM (inactive) | 3.09 µM (inactive) | 1.71 µM (inactive) | 0.743 µM (active) | 2.06 µM (inactive) | 1.35 µM (inactive) | 3.92 µM (inactive) | 1.19 µM (inactive) | 0.698 µM (active) | 2.75 µM | 0.959 µM (active) | 2.37 µM (inactive) | 2.47 µM (inactive) | 2.66 µM (inactive) | 2.47 µM (inactive) | 0.548 µM (active) | 1.02 µM (active) | 0.92 µM (active) | 1.36 µM (inactive) | 2.39 µM (inactive) |
| O=C1C=CC(=O)c2c1ccc1c3ccccc3n(CCCCCCCCCCCCn3c4ccccc4c4ccc5c(c43)C(=O)C=CC5=O)c21 | > 100 µM (inactive) | > 100 µM (inactive) | > 100 µM (inactive) | > 100 µM (inactive) | > 88.7 µM (inactive) | 26.3 µM (inactive) | > 100 µM (inactive) | > 100 µM (inactive) | > 100 µM (inactive) | > 100 µM | > 100 µM (inactive) | > 100 µM (inactive) | 50.5 µM (inactive) | > 100 µM (inactive) | > 100 µM (inactive) | > 100 µM (inactive) | > 100 µM (inactive) | > 100 µM (inactive) | > 83.6 µM (inactive) | > 100 µM (inactive) |
| CCOC(=O)[C@H](CO)NC1=C(Cl)C(=O)c2c(O)ccc(O)c2C1=O | > 10 µM (inactive) | > 10 µM (inactive) | > 10 µM (inactive) | > 10 µM (inactive) | > 10 µM (inactive) | > 10 µM (inactive) | > 10 µM (inactive) | > 10 µM (inactive) | > 10 µM (inactive) | > 10 µM | > 10 µM (inactive) | > 10 µM (inactive) | 5.22 µM (inactive) | > 10 µM (inactive) | > 10 µM (inactive) | > 10 µM (inactive) | > 10 µM (inactive) | > 10 µM (inactive) | > 10 µM (inactive) | > 10 µM (inactive) |
| COc1cc(C2SCC(=O)N2c2ccc(-c3ccc(-n4c(-c5ccccc5)nc5ccccc5c4=O)cc3)cc2)cc(OC)c1OC (stereo not given) | > 100 µM (inactive) | 24.8 µM (inactive) | > 100 µM (inactive) | 2.21 µM (inactive) | 22.2 µM (inactive) | 10.6 µM (inactive) | 63 µM (inactive) | 19.1 µM (inactive) | 13.1 µM (inactive) | 28.6 µM | 15.6 µM (inactive) | 11.4 µM (inactive) | 23.1 µM (inactive) | 20 µM (inactive) | 19 µM (inactive) | 27.5 µM (inactive) | 17.3 µM (inactive) | 24.6 µM (inactive) | 13.4 µM (inactive) | > 100 µM (inactive) |
| CCOC(=O)/C(C#N)=C/c1ccc2c(c1)CC1(C2)Cc2cc(CC)c(C(C)O)cc2C1 (stereo not given) | 19.3 µM (inactive) | 27.9 µM (inactive) | 33 µM (inactive) | 6.95 µM (inactive) | 6.35 µM (inactive) | 4.61 µM (inactive) | 13 µM (inactive) | 57.9 µM (inactive) | 4.27 µM (inactive) | 5.24 µM | 10.5 µM (inactive) | 10.2 µM (inactive) | 5.05 µM (inactive) | 10 µM (inactive) | 23 µM (inactive) | 23.2 µM (inactive) | 5.38 µM (inactive) | 44.1 µM (inactive) | 47 µM (inactive) | 6.84 µM (inactive) |
| CCCCC1Cc2cc(O)ccc2-c2n1c1cc(O)ccc1[n+]2C.CCCCC1Cc2cc(O)ccc2-c2n1c1ccc(O)cc1[n+]2C (stereo not given) | 41 µM (inactive) | 22.3 µM (inactive) | 63.5 µM (inactive) | 39 µM (inactive) | 1.1 µM (active) | 9.59 µM (inactive) | 4.57 µM (inactive) | > 100 µM (inactive) | 36.9 µM (inactive) | 51.8 µM | 48 µM (inactive) | 49.5 µM (inactive) | 56.5 µM (inactive) | 5.47 µM (inactive) | 25.9 µM (inactive) | 37.9 µM (inactive) | 32.2 µM (inactive) | 22.9 µM (inactive) | 2.99 µM (inactive) | 9.73 µM (inactive) |
| FC(F)(F)c1ccc(C2ON=C(c3ccccc3)N2C23CC4CC(CC(C4)C2)C3)cc1 (stereo not given) | > 10 µM (inactive) | > 10 µM (inactive) | > 10 µM (inactive) | > 10 µM (inactive) | > 10 µM (inactive) | > 10 µM (inactive) | > 10 µM (inactive) | > 10 µM (inactive) | > 10 µM (inactive) | > 10 µM | > 10 µM (inactive) | > 10 µM (inactive) | > 10 µM (inactive) | > 10 µM (inactive) | > 10 µM (inactive) | > 10 µM (inactive) | > 10 µM (inactive) | > 10 µM (inactive) | > 10 µM (inactive) | > 10 µM (inactive) |
| CC(=O)c1c2c(c3ccccc3c1O)O[C@@H]1OCC[C@H]21 | > 100 µM (inactive) | > 100 µM (inactive) | > 100 µM (inactive) | > 100 µM (inactive) | > 100 µM (inactive) | > 100 µM (inactive) | > 100 µM (inactive) | > 100 µM (inactive) | > 100 µM (inactive) | > 100 µM | > 100 µM (inactive) | > 100 µM (inactive) | > 100 µM (inactive) | > 100 µM (inactive) | > 100 µM (inactive) | > 100 µM (inactive) | > 100 µM (inactive) | > 100 µM (inactive) | > 100 µM (inactive) | 94.6 µM (inactive) |
| O=C1C=CC(=O)c2c1ccc1c3ccccc3n(-c3ccccc3[N+](=O)[O-])c21 | 20.2 µM (inactive) | 1.33 µM (inactive) | 17.3 µM (inactive) | 1.93 µM (inactive) | 4.59 µM (inactive) | 0.181 µM (active) | 2.44 µM (inactive) | 1.47 µM (inactive) | 2.79 µM (inactive) | 2.96 µM | 2.76 µM (inactive) | 3.65 µM (inactive) | 0.444 µM (active) | 10.7 µM (inactive) | 1.94 µM (inactive) | 9.82 µM (inactive) | 1.98 µM (inactive) | 21.7 µM (inactive) | 1.63 µM (inactive) | 0.71 µM (active) |
| CC(C)(C)OC(=O)N(CCCCN(CCCNC(=O)C(F)(F)F)C(=O)OC(C)(C)C)CCCNC(=O)C(F)(F)F | > 100 µM (inactive) | > 100 µM (inactive) | > 100 µM (inactive) | > 100 µM (inactive) | > 100 µM (inactive) | > 100 µM (inactive) | > 100 µM (inactive) | 47.1 µM (inactive) | > 100 µM (inactive) | > 100 µM | > 100 µM (inactive) | > 100 µM (inactive) | > 100 µM (inactive) | > 100 µM (inactive) | > 100 µM (inactive) | > 100 µM (inactive) | > 100 µM (inactive) | > 100 µM (inactive) | 24 µM (inactive) | 37.7 µM (inactive) |
| Cc1[nH]n(-c2ncc(C#N)c(=O)[nH]2)c(=O)c1CCO | > 100 µM (inactive) | > 100 µM (inactive) | > 100 µM (inactive) | > 100 µM (inactive) | > 100 µM (inactive) | > 100 µM (inactive) | > 100 µM (inactive) | > 100 µM (inactive) | > 100 µM (inactive) | > 100 µM | > 100 µM (inactive) | > 100 µM (inactive) | > 100 µM (inactive) | > 100 µM (inactive) | > 100 µM (inactive) | > 100 µM (inactive) | > 100 µM (inactive) | > 100 µM (inactive) | > 100 µM (inactive) | > 100 µM (inactive) |
| CC(=O)OCC1OC(Nn2c(=O)[nH]c3ccccc3c2=O)C(OC(C)=O)C(OC(C)=O)C1OC(C)=O (stereo not given) | > 100 µM (inactive) | 35.5 µM (inactive) | > 100 µM (inactive) | > 100 µM (inactive) | > 100 µM (inactive) | 40.2 µM (inactive) | > 100 µM (inactive) | > 100 µM (inactive) | > 100 µM (inactive) | > 100 µM | > 100 µM (inactive) | > 100 µM (inactive) | > 100 µM (inactive) | > 100 µM (inactive) | > 100 µM (inactive) | 27.2 µM (inactive) | > 100 µM (inactive) | > 100 µM (inactive) | > 100 µM (inactive) | > 100 µM (inactive) |
